From patent US7419966B2, “[5-carboxamido or 5-fluoro]-[2′,3′-unsaturated or 3′-modified]-pyrimidine nucleosides” (Emory University, priority 1995, dated 2008)
Like-named read-outs stand apart in the source and are kept apart here.

Key:
Type in all cases: cell-based
HIV-1 (strain LAV) = assay: Anti-HIV-1 activity in PHA-stimulated human PBM cells (reverse transcriptase readout); details: for EC50: Table 3, HIV-1LAI, estimated 10% error factor, read-out: Anti-HIV-1 in PBMC EC50; for antiviral activity against HIV, in words: text b71, b85
Procedure: The ability of nucleosides to inhibit HIV can be measured by various experimental techniques. The technique used herein, and described in detail below, measures the inhibition of viral replication in phytohemagglutinin (PHA) stimulated human peripheral blood mononuclear (PBM) cells infected with HIV-1. (strain LAV). The amount of virus produced is determined by measuring the virus-coded reverse transcriptase enzyme. The amount of enzyme produced is proportional to the amount of virus produced.
Three-day-old phytohemagglutinin-stimulated PBM cells (10^6 cells/ml) from hepatitis B and HIV-1 seronegative healthy donors were infected with HIV-1 (strain LAV) at a concentration of about 100 times the 50% tissue culture infectious dose (TICD 50) per ml and cultured in the presence and absence of various concentrations of antiviral compounds.
Approximately one hour after infection, the medium, with the compound to be tested (2 times the final concentration in medium) or without compound, was added to the flasks (5 ml; final volume 10 ml). AZT was used as a positive control.
The cells were exposed to the virus (about 2×10^5 dpm/ml, as determined by reverse transcriptase assay) and then placed in a CO2 incubator. HIV-1 (strain LAV) was obtained from the Center for Disease Control, Atlanta, Ga. The methods used for culturing the PBM cells, harvesting the virus and determining the reverse transcriptase activity were those described by McDougal et al. (J. Immun. Meth. 76, 171-183, 1985) and Spira et al. (J. Clin. Meth. 25, 97-99, 1987), except that fungizone was not included in the medium (see Schinazi, et al., Antimicrob. Agents Chemother. 32, 1784-1787 (1988); Id., 34:1061-1067 (1990)).
On day 6, the cells and supernatant were transferred to a 15 ml tube and centrifuged at about 900 g for 10 minutes. Five ml of supernatant were removed and the virus was concentrated by centrifugation at 40,000 rpm for 30 minutes (Beckman 70.1 Ti rotor). The solubilized virus pellet was processed for determination of the levels of reverse transcriptase. Results are expressed in dpm/ml of sampled supernatant. Virus from smaller volumes of supernatant (1 ml) can also be concentrated by centrifugation prior to solubilization and determination of reverse transcriptase levels.

HIV-2ROD2 = assay: Anti-HIV-2 activity in PBMC; details: Table 3; HIV-2ROD2; read-out: Anti-HIV-2 in PBMC EC50
[1] = test system: 2.2.15 cells (HepG2 cells transformed with hepatitis virion); assay: Toxicity in 2.2.15 cells by neutral red dye uptake; details: Table 4; 2.2.15 cells; read-out: Cytotoxicity IC50 ± SD
Procedure: (§1) Toxicity analyses were performed to assess whether any observed antiviral effects were due to a general effect on cell viability. The method used herein was the measurement of the uptake of neutral red dye, a standard and widely used assay for cell viability in a variety of virus-host systems, including HSV and HIV. Toxicity analyses were performed in 96-well flat bottomed tissue culture plates. Cells for the toxicity analyses were cultured and treated with test compounds with the same schedule as described for the antiviral evaluations below. Each compound was tested at 4 concentrations, each in triplicate cultures (wells “A”, “B”, and “C”). Uptake of neutral red dye was used to determine the relative level of toxicity. The absorbance of internalized dye at 510 nm (Asin) was used for the quantitative analysis. Values are presented as a percentage of the average Asin values in 9 separate cultures of untreated cells maintained on the same 96-well plate as the test compounds. Dye uptake in the 9 control cultures on plate 5 ranged from 91.6% to 110.4%, and on plate 6 from 96.6% to 109%.

SIVSMM = assay: Anti-SIV activity in PBMC; details: Table 3; SIVSMM; read-out: Anti-SIV in PBMC EC50
[2] = test system: hepatitis B virus in transfected HepG-2 (2.2.15) cells; assay: Anti-HBV activity in 2.2.15 cell cultures (HBV virion DNA and replicative intermediates); details: for EC50 / EC90: day 9
Procedure: The ability of the active compounds to inhibit the growth of virus in 2.2.15 cell cultures (HepG2 cells transformed with hepatitis virion) can be evaluated as described in detail below.
A summary and description of the assay for antiviral effects in this culture system and the analysis of HBV DNA has been described (Korba and Milman, 1991, Antiviral Res., 15:217). The antiviral evaluations were performed on two separate passages of cells. All wells, in all plates, were seeded at the same density and at the same time.
Due to the inherent variations in the levels of both intracellular and extracellular HBV DNA, only depressions greater than 3.5-fold (for HBV virion DNA) or 3.0-fold (for HBV DNA replication intermediates) from the average levels for these HBV DNA forms in untreated cells are considered to be statistically significant [P<0.05]. The levels of integrated HBV DNA in each cellular DNA preparation (which remain constant on a per cell basis in these experiments) were used to calculate the levels of intracellular HBV DNA forms, thereby ensuring that equal amounts of cellular DNA were compared between separate samples.
Typical values for extracellular HBV virion DNA in untreated cells ranged from 50 to 150 pg/ml culture medium (average of approximately 76 pg/ml). Intracellular HBV DNA replication intermediates in untreated cells ranged from 50 to 100 pg/μg cell DNA (average approximately 74 pg/μg cell DNA). In general, depressions in the levels of intracellular HBV DNA due to treatment with antiviral compounds are less pronounced, and occur more slowly, than depressions in the levels of HBV virion DNA (Korba and Milman, 1991, Antiviral Res., 15:217).

various cell lines = assay: Toxicity in various cell lines (PBM, CEM, Vero); details: PBM, CEM and Vero cells
CEM cells = assay: Toxicity in CEM cells; details: Table 3
[3] = test system: uninfected human PBM cells; assay: Toxicity in mitogen-stimulated uninfected human PBM cells (cell count, trypan blue exclusion); details: Table 3
Procedure: Mitogen stimulated uninfected human PBM cells (3.8×10^5 cells/ml) were cultured in the presence and absence of drug under similar conditions as those used for the antiviral assay described above. The cells were counted after 6 days using a hemacytometer and the trypan blue exclusion method, as described by Schinazi et al., Antimicrobial Agents and Chemotherapy, 22(3), 499 (1982). […]

Vero cells = assay: Toxicity in Vero cells; details: Table 3
[4] = Toxicity in 2.2.15 cells by neutral red dye uptake; details: human, 2.2.15 cells (HepG2 cells transformed with hepatitis virion), 2.2.15 cells, read-out: Cytotoxicity IC50 ± SD
Procedure: as §1

[5] = Table 4, extracellular DNA, untreated control 88 pg/ml, read-out: HBV virion EC50 ± SD
[6] = Table 4, extracellular DNA, untreated control 88 pg/ml, read-out: HBV virion EC90 ± SD
[7] = Table 4, replicative intermediates (intracellular DNA), untreated control 79 pg/μg cell DNA, read-out: HBV RI EC50 ± SD
[8] = Table 4, replicative intermediates (intracellular DNA), untreated control 79 pg/μg cell DNA, read-out: HBV RI EC90 ± SD

| Compound | EC50 (HIV-1 (strain LAV)) | antiviral activity against HIV, in words (HIV-1 (strain LAV)) | EC50 (HIV-2ROD2) | IC50 [1] | EC50 (SIVSMM) | EC50 [2, 5] | EC90 [2, 6] | EC50 [2, 7] | EC90 [2, 8] | toxicity, in words (various cell lines) | IC50 (CEM cells) | IC50 [3] | IC50 (Vero cells) | IC50 ([4]; Table 2) | Selectivity Index IC50/EC90 RI ([2]; Table 2) | Selectivity Index IC50/EC90 Virion ([2]; Table 2) | also measured |
| --- | --- | --- | --- | --- | --- | --- | --- | --- | --- | --- | --- | --- | --- | --- | --- | --- | --- |
| Nc1nc(=O)n([C@@H]2C=C[C@H](CO)O2)cc1F [L-F-D4C, β-L-2′,3′-didehydro-2′,3′-dideoxy-5-fluoro-cytidine] | 0.0015 µM | significant activity against HIV | 0.0006 µM | > 3 µM | 0.00015 µM | 0.28 ± 0.03 µM | 0.41 ± 0.04 µM | 0.33 ± 0.04 µM | 0.75 ± 0.07 µM | relatively nontoxic | 7.3 µM | > 100 µM | 40.3 µM |  |  |  |  |
| Nc1nc(=O)n([C@@H]2CS[C@H](CO)O2)cc1F [β-L-FTC, (−)-cis-2-hydroxymethyl-5-(5-fluorocytosin-1-yl)-1,3-oxathiolane, reference compound] |  |  |  |  |  |  |  |  |  |  |  |  |  | 746 ± 33 µM | 1,913 | 678 | EC50 ([2]; Hepatitis B virus, HepG2 2.2.15, 216 h, Table 2, extracellular DNA, untreated control 102 pg/ml, read-out: HBV virion EC50 ± SD): 0.04 ± 0.006 µM; EC90 ([2]; Hepatitis B virus, HepG2 2.2.15, 216 h, Table 2, extracellular DNA, untreated control 102 pg/ml, read-out: HBV virion EC90 ± SD): 1.1 ± 0.1 µM; EC50 ([2]; Hepatitis B virus, HepG2 2.2.15, 216 h, Table 2, replicative intermediates (intracellular DNA), untreated control 87 pg/μg cell DNA, read-out: HBV RI EC50 ± SD): 0.16 ± 0.01 µM; EC90 ([2]; Hepatitis B virus, HepG2 2.2.15, 216 h, Table 2, replicative intermediates (intracellular DNA), untreated control 87 pg/μg cell DNA, read-out: HBV RI EC90 ± SD): 0.39 ± 0.22 µM |
| Nc1ccn([C@@H]2C=C[C@H](CO)O2)c(=O)n1 [L-D4C, β-L-2′,3′-didehydro-2′,3′-dideoxy-cytidine] | 0.0058 µM | significant activity against HIV | 0.033 µM | 1040 ± 92 µM | 0.048 µM | 0.15 ± 0.02 µM | 0.33 ± 0.04 µM | 0.91 ± 0.09 µM | 2.3 ± 0.3 µM | relatively nontoxic | 0.73 µM | > 100 µM | 10.8 µM |  |  |  |  |
| Nc1ccn([C@H]2CC[C@@H](CO)O2)c(=O)n1 [β-D-DDC, 2′,3′-dideoxycytidine, reference compound] |  |  |  |  |  |  |  |  |  |  |  |  |  | 236 ± 21 µM | 18 | 26 | IC50 ([4]; Table 4): 259 ± 18 µM; EC50 ([2]; Hepatitis B virus, HepG2 2.2.15, 216 h, read-out: HBV RI EC50 ± SD, Table 2, replicative intermediates (intracellular DNA), untreated control 87 pg/μg cell DNA): 3.4 ± 0.4 µM; EC50 ([2]; Hepatitis B virus, HepG2 2.2.15, 216 h, read-out: HBV RI EC50 ± SD, Table 4, replicative intermediates (intracellular DNA), untreated control 79 pg/μg cell DNA): 2.4 ± 0.3 µM; EC90 ([2]; Hepatitis B virus, HepG2 2.2.15, 216 h, read-out: HBV RI EC90 ± SD, Table 2, replicative intermediates (intracellular DNA), untreated control 87 pg/μg cell DNA): 13 ± 1.4 µM; EC90 ([2]; Hepatitis B virus, HepG2 2.2.15, 216 h, read-out: HBV RI EC90 ± SD, Table 4, replicative intermediates (intracellular DNA), untreated control 79 pg/μg cell DNA): 12 ± 1.1 µM; EC50 ([2]; Hepatitis B virus, HepG2 2.2.15, 216 h, read-out: HBV virion EC50 ± SD, Table 2, extracellular DNA, untreated control 102 pg/ml): 1.4 ± 0.2 µM; EC50 ([2]; Hepatitis B virus, HepG2 2.2.15, 216 h, read-out: HBV virion EC50 ± SD, Table 4, extracellular DNA, untreated control 88 pg/ml): 1.5 ± 0.2 µM; EC90 ([2]; Hepatitis B virus, HepG2 2.2.15, 216 h, read-out: HBV virion EC90 ± SD, Table 2, extracellular DNA, untreated control 102 pg/ml): 9.6 ± 1.1 µM; EC90 ([2]; Hepatitis B virus, HepG2 2.2.15, 216 h, read-out: HBV virion EC90 ± SD, Table 4, extracellular DNA, untreated control 88 pg/ml): 8.2 ± 0.8 µM; Selectivity Index IC50/EC90 RI ([2]; Table 4): 22; Selectivity Index IC50/EC90 Virion ([2]; Table 4): 37 |
